Data published in patent US20190225650A1, “PEPTIDOMIMETIC MACROCYCLES AND USE THEREOF IN REGULATING HIF1ALPHA” (AILERON THERAPEUTICS, INC., priority 2013, published 2019).
Bridge positions count the residues as written; N and C are the ends. Square brackets hold non-standard residues; d marks the D form. Peptide text beside a SMILES is read from it. R8 = C=CCCCCCC[C@@](C)(N)C(=O)O; S5 = C=CCCC[C@](C)(N)C(=O)O; Nle = CCCC[C@H](N)C(=O)O; Abu = CC[C@H](N)C(=O)O

Tests used:
[1] = test system: HRE-bla ME-180 cells; assay: Cell proliferation assay (viability, MTT, 1% FBS); assay type: cell-based, human
How it was run: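 ME-180 cells (2×10^4/well) in Opti-MEM with 1% FBS were pretreated 16 h under normoxia (21% O2), vehicle 0.5% DMSO final. Incubation then continued under normoxia or hypoxia (1% O2); viable cells quantified by MTT-type CellTiter 96 assay.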

[2] = test system: HRE-bla ME-180 cells; assay: Reporter gene assay (HRE-bla ME-180 HIF reporter, GeneBLAzer); assay type: cell-based, human; settings: for EC50: 24 hour normoxia
How it was run: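 A FRET β-lactamase readout of HIF transcription was used. After compound treatment in 0.3% DMSO/media under normoxic conditions, 20 μl of 6× LiveBLAzer-FRET B/G (CCF4-AM) substrate was added. Plates sat 3 hr at room temperature in the dark and were read at 409 Ex/460Em and 409Ex/530Em on a Synergy 2. Inhibition was compared against DMSO vehicle controls, with chetomin as positive control.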

[3] = molecular target: T1, flag-tagged HIF1α (AA 786-826) / His6-tagged p300 (AA 323-423) complex (Homo sapiens, UniProt Q09472); assay: HIF1α p300 displacement assay (TR FRET, +CHAPS); assay type: binding; settings: read-out: IC50 (nM) (HIF1α_p300 Displacement + CHAPS)
T1 construct: His6-tagged p300 (AA 323-423); made in house; host or cells: E. coli (pETDuet vector)
How it was run: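 The co-expressed flag-HIF1α (786-826)/His6-p300 (323-423) complex, purified from E. coli with 0.1 mM ZnSO4, was used at 300 nM final with competitor peptides for 1 h at room temperature. Buffer was 150 mM NaCl, 20 mM HEPES pH 7.4, 7.5 mM CHAPS and 1 mM DTT. Anti-Flag-K (0.5 μM) and anti-His-D2 (4 nM) were then added for 2 h, and IC50s were fitted from the TR-FRET ratio.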

| Structure (SMILES) | EC50 [2] [µM] | IC50 [3] [nM] | Viability 1% FBS AVG (MTT V3-24 hr Normoxia) (μM) [1] | 18 h Avg % max inhibition at top conc (HIF Rptr-24 hrs normoxia) (μM) [2] |
| --- | --- | --- | --- | --- |
| CCCC[C@@H]1NC(=O)[C@H](CC(C)C)NC(=O)[C@H](C(C)C)NC(=O)[C@@](C)(NC(=O)[C@H](CCC(=O)O)NC(=O)[C@H](CC(=O)O)NC(=O)[C@@H](NC(=O)[C@H](Cc2ccccc2)NC(C)=O)[C@@H](C)CC)CCCC=CCCCC2(CCCC=CCCC[C@](C)(C(=O)N[C@@H](CCCC)C(=O)N[C@@H](C)C(=O)N[C@@H](CC(C)C)C(N)=O)NC(=O)[C@H]([C@@H](C)CC)NC(=O)[C@H](C(C)C)NC(=O)[C@H](CC(N)=O)NC2=O)NC1=O (stereo partly shown) [SP-210] | 5 to 15 | 200 to 400 | + (<5: +) | ++++ (≥50: ++++) |
| CCCC[C@H](NC(=O)[C@H](CCC(=O)O)NC(=O)[C@]1(C)CCCC=CCCCCCC[C@@](C)(NC(=O)[C@H](CCC(=O)O)NC(=O)[C@H](C)NC(=O)[C@@H](NC(=O)[C@H](Cc2ccccc2)NC(C)=O)[C@@H](C)CC)C(=O)N[C@@H](C(C)C)C(=O)N[C@@H](CC(C)C)C(=O)N[C@@H](CCCC)C(=O)N[C@@H](CO)C(=O)N[C@@H](CC(C)C)C(=O)N[C@@H](C(C)C)C(=O)N1)C(=O)N[C@@H](C)C(=O)N[C@@H](CC(C)C)C(N)=O [SP-197] (Ac-FIAE[R8]VL[Nle]SLV[S5]E[Nle]AL-NH2; staple 5-12) | 5 to 15 | > 700 | ++++ (≥30: ++++) | ++++ (≥50: ++++) |
| CCCC[C@H](NC(=O)[C@H](CCC(=O)O)NC(=O)[C@@H](NC(=O)[C@@H](NC(=O)[C@H](C)NC(=O)[C@]1(C)CCCC=CCCC[C@](C)(NC(=O)[C@H](CCC(=O)O)NC(=O)[C@H](CC(=O)O)NC(=O)[C@@H](NC(=O)[C@H](Cc2ccccc2)NC(C)=O)[C@@H](C)CC)C(=O)N[C@@H](C(C)C)C(=O)N[C@@H](CC(C)C)C(=O)N[C@@H](CCCC)C(=O)N1)C(C)C)[C@@H](C)CC)C(=O)N[C@@H](C)C(=O)N[C@@H](CC(C)C)C(N)=O [SP-142] (Ac-FIDE[S5]VL[Nle][S5]AVIE[Nle]AL-NH2; staple 5-9) | > 30 | 400 to 700 | ++++ (≥30: ++++) | +++ (≤25 but <50: +++) |
| CCCC[C@H](NC(=O)[C@H](Cc1ccccc1)NC(=O)[C@@H](NC(=O)[C@H](C)NC(=O)[C@H](CCC(N)=O)NC(=O)[C@H](CC(=O)O)NC(=O)[C@@H](NC(=O)[C@H](Cc1ccccc1)NC(C)=O)[C@@H](C)CC)C(C)C)C(=O)N[C@@]1(C)CCCC=CCCC[C@@](C)(C(=O)N[C@@H](CCCC)C(=O)N[C@@H](C)C(=O)N[C@@H](CC(C)C)C(=O)N[C@@H](CC(C)C)C(N)=O)NC(=O)[C@H]([C@@H](C)CC)NC(=O)[C@H](C(C)C)NC(=O)[C@H](CC(N)=O)NC1=O [SP-251] (Ac-FIDQAVF[Nle][S5]NVI[S5][Nle]ALL-NH2; staple 9-13) | ≤ 5 | > 700 | + (<5: +) | ++++ (≥50: ++++) |
| CCCC[C@H](NC(=O)[C@H](C)NC(=O)[C@]1(C)CCCC=CCCCCCC[C@@](C)(NC(=O)[C@H](CCC(=O)O)NC(=O)[C@H](CC(=O)O)NC(=O)[C@@H](NC(=O)[C@H](Cc2ccccc2)NC(C)=O)[C@@H](C)CC)C(=O)N[C@@H](C(C)C)C(=O)N[C@@H](CC(C)C)C(=O)N[C@@H](CCCC)C(=O)N[C@@H](CO)C(=O)N[C@@H](CC(C)C)C(=O)N[C@@H](C(C)C)C(=O)N1)C(=O)N[C@@H](C)C(=O)N[C@@H](CC(C)C)C(N)=O [SP-196] (Ac-FIDE[R8]VL[Nle]SLV[S5]A[Nle]AL-NH2; staple 5-12) | ≤ 5 | 200 to 400 | ++++ (≥30: ++++) | ++++ (≥50: ++++) |

The next lines start with results.

| EC50 [2] [µM] | IC50 [3] [nM] | Structure (SMILES) | Viability 1% FBS AVG (MTT V3-24 hr Normoxia) (μM) [1] | 18 h Avg % max inhibition at top conc (HIF Rptr-24 hrs normoxia) (μM) [2] |
| --- | --- | --- | --- | --- |
| > 30 | 200 to 400 | CCCC[C@H](NC(=O)[C@H](CC(C)C)NC(=O)[C@@H](NC(=O)[C@H](CCC(=O)O)NC(=O)[C@H](CCC(=O)O)NC(=O)[C@H](CC(=O)O)NC(=O)[C@@H](NC(=O)[C@H](CC(N)=O)NC(=O)[C@@H](NC(=O)[C@H](CCC(N)=O)NC(=O)[C@H](CC(=O)O)NC(=O)[C@]1(C)CCCC=CCCCCCC[C@@](C)(NC(=O)[C@H](CCC(N)=O)NC(=O)[C@H](CC(C)C)NC(=O)[C@H](CC(C)C)NC(C)=O)C(=O)N[C@@H](CCC(=O)O)C(=O)N[C@@H](CCC(=O)O)C(=O)N[C@@H](CC(C)C)C(=O)N[C@@H](CC(C)C)C(=O)N[C@@H](CCCNC(=N)N)C(=O)N[C@@H](C)C(=O)N1)C(C)C)[C@@H](C)CC)C(C)C)C(=O)N[C@@]1(C)CCCC=CCCC[C@@](C)(C(=O)N[C@@H](CCCC)C(=O)NCC(N)=O)NC(=O)[C@H]([C@@H](C)CC)NC(=O)[C@H](C(C)C)NC(=O)[C@H](CC(C)C)NC1=O [SP-341] (Ac-LLQ[R8]EELLRA[S5]DQVNIDEEVL[Nle][S5]LVI[S5][Nle]G-NH2; staple 4-11, 23-27) | ++++ (≥30: ++++) | + (<10: +) |
| > 30 | 200 to 400 | CC[C@@H]1NC(=O)[C@H](CC(=O)O)NC(=O)[C@H](Cc2ccc(O)cc2)NC(=O)[C@@](C)(NC(=O)[C@@H](NC(=O)[C@H](CC(C)C)NC(=O)[C@H](CCC(N)=O)NC(=O)[C@@H]2CCCN2C(=O)[C@H](CC(C)C)NC(=O)[C@H](CCC(=O)O)NC(=O)[C@H](CCCCN)NC(=O)[C@@H](NC(=O)[C@H](CCCNC(=N)N)NC(=O)[C@H](CC(=O)O)NC(=O)[C@H](CC(C)C)NC(=O)CNC(=O)[C@H](CCSC)NC(=O)[C@H](CCC(=O)O)NC(=O)[C@]2(C)CCCC=CCCCCCC[C@@](C)(NC(=O)[C@H](CCC(=O)O)NC(=O)[C@H](CC(=O)O)NC(=O)[C@@H](NC(=O)[C@H](Cc3ccccc3)NC(C)=O)[C@@H](C)CC)C(=O)N[C@@H](C(C)C)C(=O)N[C@@H](CC(C)C)C(=O)N[C@@H](CCSC)C(=O)N[C@@H](CO)C(=O)N[C@@H](CC(C)C)C(=O)N[C@@H](C(C)C)C(=O)N2)[C@@H](C)CC)[C@@H](C)O)CCCC=CCCC[C@@](C)(C(=O)N[C@H](C(=O)N[C@@H](CC(N)=O)C(=O)N[C@@H](C)C(N)=O)C(C)C)NC1=O [SP-323] (Ac-FIDE[R8]VLMSLV[S5]EMGLDRIKELPQLT[S5]YD[Abu][S5]VNA-NH2; staple 5-12, 27-31) | ++++ (≥30: ++++) | + (<10: +) |
| > 30 | ≤ 200 | CCCC[C@H](NC(=O)[C@H](CCC(=O)O)NC(=O)[C@]1(C)CCCC=CCCCCCC[C@@](C)(NC(=O)[C@H](CCC(=O)O)NC(=O)[C@H](CC(=O)O)NC(=O)[C@@H](NC(=O)[C@H](CC(N)=O)NC(=O)[C@@H](NC(=O)[C@]2(C)CCCC=CCCCCCC[C@@](C)(NC(=O)[C@H](C)NC(=O)CNC(=O)[C@H](CCC(N)=O)NC(=O)[C@H](CC(C)C)NC(=O)[C@H](CC(C)C)NC(C)=O)C(=O)N[C@@H](CC(C)C)C(=O)N[C@@H](CC(C)C)C(=O)N[C@@H](CCCNC(=N)N)C(=O)N[C@@H](C)C(=O)N[C@@H](CC(C)C)C(=O)N[C@@H](CC(=O)O)C(=O)N2)C(C)C)[C@@H](C)CC)C(=O)N[C@@H](C(C)C)C(=O)N[C@@H](CC(C)C)C(=O)N[C@@H](CCCC)C(=O)N[C@@H](CO)C(=O)N[C@@H](CC(C)C)C(=O)N[C@@H](C(C)C)C(=O)N1)C(N)=O [SP-353] (Ac-LLQGA[R8]LLRALD[S5]VNIDE[R8]VL[Nle]SLV[S5]E[Nle]-NH2; staple 6-13, 19-26) | ++++ (≥30: ++++) | +++ (≤25 but <50: +++) |
| > 30 | > 700 | CCCC[C@@H]1NC(=O)[C@H](CC(C)C)NC(=O)[C@H](C(C)C)NC(=O)[C@@](C)(NC(=O)[C@H](CCC(=O)O)NC(=O)[C@H](CC(=O)O)NC(=O)[C@@H](NC(=O)[C@H](Cc2ccccc2)NC(C)=O)[C@@H](C)CC)CCCC=CCCC[C@@](C)(C(=O)N[C@@H](CC(C)C)C(=O)N[C@H](C(=O)N[C@H](C(=O)N[C@@H](CCC(=O)O)C(=O)N[C@@H](CCC(N)=O)C(=O)N[C@@H](C)C(=O)N[C@@H](CC(C)C)C(N)=O)[C@@H](C)CC)C(C)C)NC1=O [SP-146] (Ac-FIDE[S5]VL[Nle][S5]LVIEQAL-NH2; staple 5-9) | ++++ (≥30: ++++) | +++ (≤25 but <50: +++) |
| ≤ 5 | 400 to 700 | CCCC[C@H](NC(=O)[C@H](CCC(=O)O)NC(=O)[C@]1(C)CCCC=CCCCCCC[C@@](C)(NC(=O)[C@H](CCC(=O)O)NC(=O)[C@H](CC(=O)O)NC(=O)[C@@H](NC(=O)[C@H](Cc2ccccc2)NC(C)=O)[C@@H](C)CC)C(=O)N[C@@H](C(C)C)C(=O)N[C@@H](CC(C)C)C(=O)N[C@@H](CCCC)C(=O)N[C@@H](CO)C(=O)N[C@@H](CC(C)C)C(=O)N[C@@H](C(C)C)C(=O)N1)C(=O)N[C@@H](C)C(=O)N[C@@H](CC(C)C)C(N)=O [SP-195] (Ac-FIDE[R8]VL[Nle]SLV[S5]E[Nle]AL-NH2; staple 5-12) | ++ (≤5 but <15: ++) | ++++ (≥50: ++++) |
